This note sets out measurements from ChEMBL document CHEMBL5715260, “Selectivity Literature for EUbOPEN Chemogenomic Library” (2024).

Each structure is given as a SMILES string.

Set-up in all cases: recommended concentration 1 uM
For one experiment, the target named is Mu-type opioid receptor (Homo sapiens, UniProt P35372). Put plainly: Selectivity interaction (Custom Panel of enzymes and receptors (Eurofins)) EUB0000234b OPRM1. As to conditions: at 10 µM.
Experiment [1] deals with Histamine H3 receptor (Homo sapiens) (UniProt Q9Y5N1). Description: Selectivity interaction (Custom Panel of enzymes and receptors (Eurofins)) EUB0000234b HRH3. The conditions noted are these: at 10 µM.
Experiment [2] deals with Muscarinic acetylcholine receptor M2 (Homo sapiens) (UniProt P08172). Put plainly: Selectivity interaction (Custom Panel of enzymes and receptors (Eurofins)) EUB0000234b CHRM2. The conditions noted are these: at 10 µM.
Experiment [3] deals with Alpha-2B adrenergic receptor (Homo sapiens) (UniProt P18089). Put plainly: Selectivity interaction (Custom Panel of enzymes and receptors (Eurofins)) EUB0000234b ADRA2B. The conditions noted are these: at 10 µM.
In experiment [4] the target is T1, Nuclear receptor subfamily 2 group C member 1 (Homo sapiens) (UniProt P13056).
T1 sequence (whole entry): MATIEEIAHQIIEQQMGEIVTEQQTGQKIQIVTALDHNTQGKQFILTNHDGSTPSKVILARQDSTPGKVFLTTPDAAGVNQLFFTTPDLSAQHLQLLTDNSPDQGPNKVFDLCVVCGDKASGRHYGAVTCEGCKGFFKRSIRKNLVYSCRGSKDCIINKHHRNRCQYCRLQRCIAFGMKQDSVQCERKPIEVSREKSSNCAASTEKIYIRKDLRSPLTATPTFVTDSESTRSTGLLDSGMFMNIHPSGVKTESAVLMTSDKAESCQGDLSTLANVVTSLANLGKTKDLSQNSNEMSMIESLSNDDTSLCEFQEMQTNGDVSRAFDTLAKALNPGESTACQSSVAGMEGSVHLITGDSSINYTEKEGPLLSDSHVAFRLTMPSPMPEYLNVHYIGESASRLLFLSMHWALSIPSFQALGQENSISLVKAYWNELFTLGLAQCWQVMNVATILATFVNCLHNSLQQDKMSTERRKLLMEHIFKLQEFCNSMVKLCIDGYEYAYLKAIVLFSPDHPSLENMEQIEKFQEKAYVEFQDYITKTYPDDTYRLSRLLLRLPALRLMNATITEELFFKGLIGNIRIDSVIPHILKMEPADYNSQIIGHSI
Put plainly: Selectivity interaction (Reporter gene assay) EUB0000184b NR2C1.

Experiment [5] addresses T2, Retinoic acid receptor RXR-alpha (Homo sapiens) (UniProt P19793).
T2 sequence (whole entry): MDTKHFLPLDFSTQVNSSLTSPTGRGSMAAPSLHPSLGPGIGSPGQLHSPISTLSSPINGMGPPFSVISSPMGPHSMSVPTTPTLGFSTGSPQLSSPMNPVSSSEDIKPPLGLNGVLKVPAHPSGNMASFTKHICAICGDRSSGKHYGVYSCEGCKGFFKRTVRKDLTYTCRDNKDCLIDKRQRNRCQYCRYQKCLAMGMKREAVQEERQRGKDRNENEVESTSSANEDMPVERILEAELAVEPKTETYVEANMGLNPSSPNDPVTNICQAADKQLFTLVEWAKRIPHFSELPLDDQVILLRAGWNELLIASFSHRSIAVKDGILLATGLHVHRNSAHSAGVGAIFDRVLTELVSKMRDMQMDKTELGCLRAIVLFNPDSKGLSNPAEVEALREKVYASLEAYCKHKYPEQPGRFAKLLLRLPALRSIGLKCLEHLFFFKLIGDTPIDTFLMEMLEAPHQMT
Put plainly: Selectivity interaction (Reporter gene assay) EUB0000184b RXRA.

Experiment [6] has as its target Nuclear receptor subfamily 4immunitygroup A member 1 (Homo sapiens) (UniProt P22736). Put plainly: Selectivity interaction (Reporter gene assay) EUB0000184b NR4A1.
The target of experiment [7] is Steroidogenic factor 1 (Homo sapiens) (UniProt Q13285). Description: Selectivity interaction (Reporter gene assay) EUB0000184b NR5A1.
Experiment [8] addresses T3, Alpha trans-inducing protein (Human alphaherpesvirus 1) (UniProt A0A5J6DW59). Description: Selectivity interaction (Reporter gene assay) EUB0000184b UL48.
Experiment [9] concerns the target T4, Hepatocyte nuclear factor 4-alpha (Homo sapiens) (UniProt P41235).
T4 sequence (whole entry): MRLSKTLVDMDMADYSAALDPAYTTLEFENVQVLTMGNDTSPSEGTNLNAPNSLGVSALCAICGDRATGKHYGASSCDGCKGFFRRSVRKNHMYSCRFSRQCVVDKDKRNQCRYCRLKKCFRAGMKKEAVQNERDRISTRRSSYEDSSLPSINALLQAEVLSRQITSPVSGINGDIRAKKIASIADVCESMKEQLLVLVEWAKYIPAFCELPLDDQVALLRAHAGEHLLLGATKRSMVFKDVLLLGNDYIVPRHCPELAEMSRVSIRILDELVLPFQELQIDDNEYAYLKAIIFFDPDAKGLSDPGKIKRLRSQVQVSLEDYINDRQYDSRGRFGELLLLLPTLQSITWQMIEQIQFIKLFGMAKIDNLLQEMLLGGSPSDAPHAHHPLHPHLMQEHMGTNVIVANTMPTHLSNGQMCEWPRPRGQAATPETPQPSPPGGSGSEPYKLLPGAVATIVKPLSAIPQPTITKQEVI
Description: Selectivity interaction (Reporter gene assay) EUB0000184b HNF4A.

Experiment [10] deals with Nuclear receptor subfamily 2 group E member 1 (Homo sapiens) (UniProt Q9Y466). Description: Selectivity interaction (Reporter gene assay) EUB0000184b NR2E1.
Experiment [11] concerns the target Adenosine receptor A2a (Homo sapiens) (UniProt P29274). Put plainly: Selectivity interaction (CEREP panel) EUB0000089c ADORA2A. As to conditions: at 10 µM.
For experiment [12], the target named is 5-hydroxytryptamine receptor 2B (Homo sapiens) (UniProt P41595). Put plainly: Selectivity interaction (CEREP panel) EUB0000089c HTR2B. The conditions noted are these: at 10 µM.
Experiment [13] concerns the target Adenosine receptor A1 (Homo sapiens) (UniProt P30542). Description: Selectivity interaction (CEREP panel) EUB0000089c ADORA1. As to conditions: at 10 µM.
For experiment [14], the target named is Sodium-dependent noradrenaline transporter (Homo sapiens) (UniProt P23975). Description: Selectivity interaction (CEREP panel) EUB0000089c SLC6A2. As to conditions: at 10 µM.
Experiment [15] deals with Nuclear receptor subfamily 4immunitygroup A member 1 (Homo sapiens) (UniProt P22736). Put plainly: Selectivity interaction (Reporter gene assay) EUB0000188b NR4A1.
Experiment [16] deals with T2, Retinoic acid receptor RXR-alpha (Homo sapiens). Description: Selectivity interaction (Reporter gene assay) EUB0000188b RXRA. As to conditions: reference bexarotene 1 uM, Selectivity number of off-targets 0.0, Selectivity number of targets 1.0, Source Knowledge inhouse.
For experiment [17], the target named is Steroidogenic factor 1 (Homo sapiens) (UniProt Q13285). Description: Selectivity interaction (Reporter gene assay) EUB0000188b NR5A1.
The target of experiment [18] is Nuclear receptor subfamily 2 group E member 1 (Homo sapiens) (UniProt Q9Y466). Description: Selectivity interaction (Reporter gene assay) EUB0000188b NR2E1.
For experiment [19], the target named is T3, Alpha trans-inducing protein (Human alphaherpesvirus 1). Description: Selectivity interaction (Reporter gene assay) EUB0000188b UL48.
The target of experiment [20] is T4, Hepatocyte nuclear factor 4-alpha (Homo sapiens). Put plainly: Selectivity interaction (Reporter gene assay) EUB0000188b HNF4A.
The target in experiment [21] is T1, Nuclear receptor subfamily 2 group C member 1 (Homo sapiens). Put plainly: Selectivity interaction (Reporter gene assay) EUB0000188b NR2C1.
Experiment [22] concerns the target Steroidogenic factor 1 (Homo sapiens) (UniProt Q13285). Description: Selectivity interaction (Reporter gene assay) EUB0000182b NR5A1.
Experiment [23] has as its target T3, Alpha trans-inducing protein (Human alphaherpesvirus 1). Description: Selectivity interaction (Reporter gene assay) EUB0000182b UL48.
Experiment [24] deals with T1, Nuclear receptor subfamily 2 group C member 1 (Homo sapiens). Description: Selectivity interaction (Reporter gene assay) EUB0000182b NR2C1.
Experiment [25] deals with Nuclear receptor subfamily 2 group E member 1 (Homo sapiens) (UniProt Q9Y466). Put plainly: Selectivity interaction (Reporter gene assay) EUB0000182b NR2E1.
Experiment [26] has as its target T4, Hepatocyte nuclear factor 4-alpha (Homo sapiens). Put plainly: Selectivity interaction (Reporter gene assay) EUB0000182b HNF4A.
The target in experiment [27] is Nuclear receptor subfamily 4immunitygroup A member 1 (Homo sapiens) (UniProt P22736). Description: Selectivity interaction (Reporter gene assay) EUB0000182b NR4A1.
Experiment [28] has as its target T2, Retinoic acid receptor RXR-alpha (Homo sapiens). Put plainly: Selectivity interaction (Reporter gene assay) EUB0000182b RXRA. As to conditions: reference bexarotene 1 uM, Selectivity number of off-targets 0.0, Selectivity number of targets 1.0, Source Knowledge inhouse.

Sequence of Steroidogenic factor 1 (Homo sapiens) (Q13285 whole entry): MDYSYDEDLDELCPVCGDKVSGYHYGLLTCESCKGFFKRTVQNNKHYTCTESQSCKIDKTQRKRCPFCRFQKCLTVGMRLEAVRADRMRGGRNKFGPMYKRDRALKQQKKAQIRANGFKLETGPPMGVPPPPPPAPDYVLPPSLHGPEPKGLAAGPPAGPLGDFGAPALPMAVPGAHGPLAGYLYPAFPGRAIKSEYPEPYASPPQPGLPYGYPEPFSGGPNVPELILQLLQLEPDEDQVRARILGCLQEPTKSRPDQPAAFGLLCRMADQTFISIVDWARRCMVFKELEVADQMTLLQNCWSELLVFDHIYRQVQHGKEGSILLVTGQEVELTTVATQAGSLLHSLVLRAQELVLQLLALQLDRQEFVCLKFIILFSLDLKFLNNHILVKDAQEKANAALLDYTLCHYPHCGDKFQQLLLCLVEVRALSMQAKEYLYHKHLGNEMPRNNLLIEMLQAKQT
Sequence of Nuclear receptor subfamily 2 group E member 1 (Homo sapiens) (Q9Y466 whole entry): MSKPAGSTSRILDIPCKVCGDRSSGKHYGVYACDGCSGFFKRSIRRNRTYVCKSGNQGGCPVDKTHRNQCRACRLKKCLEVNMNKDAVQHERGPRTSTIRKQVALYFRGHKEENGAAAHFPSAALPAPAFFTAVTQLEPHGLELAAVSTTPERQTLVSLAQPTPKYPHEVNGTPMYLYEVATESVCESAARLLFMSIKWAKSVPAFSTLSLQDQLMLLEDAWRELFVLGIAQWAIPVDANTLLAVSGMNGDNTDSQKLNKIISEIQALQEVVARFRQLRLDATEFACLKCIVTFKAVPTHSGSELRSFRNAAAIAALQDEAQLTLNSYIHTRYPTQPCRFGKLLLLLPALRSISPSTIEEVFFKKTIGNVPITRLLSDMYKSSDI
T3 sequence (A0A5J6DW59 as listed by the source): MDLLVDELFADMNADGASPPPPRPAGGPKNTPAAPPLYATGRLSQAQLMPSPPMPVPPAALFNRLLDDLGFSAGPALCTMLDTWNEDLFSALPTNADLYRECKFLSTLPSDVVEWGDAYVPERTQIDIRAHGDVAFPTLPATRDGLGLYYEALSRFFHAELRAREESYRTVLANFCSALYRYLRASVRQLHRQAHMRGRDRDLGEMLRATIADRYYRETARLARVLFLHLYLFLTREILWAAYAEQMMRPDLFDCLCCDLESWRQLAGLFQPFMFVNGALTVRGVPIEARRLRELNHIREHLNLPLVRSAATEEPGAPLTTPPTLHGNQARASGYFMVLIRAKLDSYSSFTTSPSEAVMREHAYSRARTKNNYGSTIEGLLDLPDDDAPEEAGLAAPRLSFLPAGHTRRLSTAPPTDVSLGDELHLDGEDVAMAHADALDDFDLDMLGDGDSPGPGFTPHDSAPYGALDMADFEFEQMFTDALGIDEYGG
Sequence of Nuclear receptor subfamily 4immunitygroup A member 1 (Homo sapiens) (P22736 whole entry): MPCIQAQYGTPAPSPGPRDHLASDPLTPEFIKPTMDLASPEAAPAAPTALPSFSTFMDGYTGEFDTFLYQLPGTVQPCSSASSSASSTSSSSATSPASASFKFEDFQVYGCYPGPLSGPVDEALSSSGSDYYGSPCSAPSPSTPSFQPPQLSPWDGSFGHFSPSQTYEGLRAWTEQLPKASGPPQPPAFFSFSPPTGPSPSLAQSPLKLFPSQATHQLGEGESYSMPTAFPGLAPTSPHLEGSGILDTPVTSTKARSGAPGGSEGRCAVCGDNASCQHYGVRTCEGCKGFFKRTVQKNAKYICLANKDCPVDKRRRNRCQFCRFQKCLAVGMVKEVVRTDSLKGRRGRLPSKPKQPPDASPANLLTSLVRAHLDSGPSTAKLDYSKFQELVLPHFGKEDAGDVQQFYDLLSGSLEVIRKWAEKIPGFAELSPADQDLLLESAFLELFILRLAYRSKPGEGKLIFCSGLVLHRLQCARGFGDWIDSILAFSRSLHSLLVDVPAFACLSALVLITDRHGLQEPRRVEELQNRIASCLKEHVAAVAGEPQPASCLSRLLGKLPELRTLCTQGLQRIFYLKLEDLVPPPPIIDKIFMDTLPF
Sequence of 5-hydroxytryptamine receptor 2B (Homo sapiens) (P41595 whole entry): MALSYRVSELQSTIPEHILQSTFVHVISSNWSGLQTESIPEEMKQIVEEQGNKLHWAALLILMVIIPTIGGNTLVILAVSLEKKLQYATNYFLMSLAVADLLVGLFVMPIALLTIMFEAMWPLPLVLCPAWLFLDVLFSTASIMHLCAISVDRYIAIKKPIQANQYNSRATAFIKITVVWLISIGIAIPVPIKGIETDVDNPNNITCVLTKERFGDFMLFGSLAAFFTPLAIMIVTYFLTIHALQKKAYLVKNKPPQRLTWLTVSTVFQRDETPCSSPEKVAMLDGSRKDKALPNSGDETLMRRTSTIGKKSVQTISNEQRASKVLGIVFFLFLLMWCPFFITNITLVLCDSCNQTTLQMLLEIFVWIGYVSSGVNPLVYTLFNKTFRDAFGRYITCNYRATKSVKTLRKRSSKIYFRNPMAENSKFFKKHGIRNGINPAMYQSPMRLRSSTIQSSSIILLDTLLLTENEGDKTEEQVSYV
Sequence of Histamine H3 receptor (Homo sapiens) (Q9Y5N1 whole entry): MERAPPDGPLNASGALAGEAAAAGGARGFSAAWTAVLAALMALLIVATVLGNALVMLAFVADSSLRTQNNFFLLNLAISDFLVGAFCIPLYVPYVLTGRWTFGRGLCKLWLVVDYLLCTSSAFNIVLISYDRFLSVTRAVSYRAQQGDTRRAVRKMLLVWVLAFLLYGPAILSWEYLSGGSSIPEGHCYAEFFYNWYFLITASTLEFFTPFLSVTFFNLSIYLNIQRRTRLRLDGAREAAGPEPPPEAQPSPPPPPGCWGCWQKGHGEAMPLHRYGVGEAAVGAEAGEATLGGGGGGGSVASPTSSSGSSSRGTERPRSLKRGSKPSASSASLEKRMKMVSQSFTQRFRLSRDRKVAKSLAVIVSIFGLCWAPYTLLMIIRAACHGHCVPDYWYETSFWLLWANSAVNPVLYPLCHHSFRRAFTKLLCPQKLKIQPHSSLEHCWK
Sequence of Mu-type opioid receptor (P35372 whole entry): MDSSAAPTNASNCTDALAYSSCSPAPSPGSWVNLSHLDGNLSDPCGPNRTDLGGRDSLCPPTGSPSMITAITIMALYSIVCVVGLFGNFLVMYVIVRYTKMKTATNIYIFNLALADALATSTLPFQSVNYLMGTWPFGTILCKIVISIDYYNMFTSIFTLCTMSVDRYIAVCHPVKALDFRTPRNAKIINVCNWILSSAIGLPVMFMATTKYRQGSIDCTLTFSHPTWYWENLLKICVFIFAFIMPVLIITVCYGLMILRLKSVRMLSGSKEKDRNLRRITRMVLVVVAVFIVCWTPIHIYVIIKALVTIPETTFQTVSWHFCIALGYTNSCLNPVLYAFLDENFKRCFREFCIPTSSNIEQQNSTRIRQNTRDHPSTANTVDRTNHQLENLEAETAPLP
Sequence of Adenosine receptor A2a (Homo sapiens) (P29274 whole entry): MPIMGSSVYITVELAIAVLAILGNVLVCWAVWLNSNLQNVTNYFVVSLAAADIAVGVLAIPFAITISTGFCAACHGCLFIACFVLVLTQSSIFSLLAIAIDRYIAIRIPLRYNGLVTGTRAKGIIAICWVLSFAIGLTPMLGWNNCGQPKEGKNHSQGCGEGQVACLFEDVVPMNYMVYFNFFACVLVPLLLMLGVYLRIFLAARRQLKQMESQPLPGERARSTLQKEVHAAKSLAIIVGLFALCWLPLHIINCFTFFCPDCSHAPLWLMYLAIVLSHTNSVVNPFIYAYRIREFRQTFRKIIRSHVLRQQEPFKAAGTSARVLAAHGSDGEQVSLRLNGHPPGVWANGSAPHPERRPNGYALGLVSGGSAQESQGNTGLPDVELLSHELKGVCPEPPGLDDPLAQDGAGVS
Sequence of Muscarinic acetylcholine receptor M2 (Homo sapiens) (P08172 whole entry): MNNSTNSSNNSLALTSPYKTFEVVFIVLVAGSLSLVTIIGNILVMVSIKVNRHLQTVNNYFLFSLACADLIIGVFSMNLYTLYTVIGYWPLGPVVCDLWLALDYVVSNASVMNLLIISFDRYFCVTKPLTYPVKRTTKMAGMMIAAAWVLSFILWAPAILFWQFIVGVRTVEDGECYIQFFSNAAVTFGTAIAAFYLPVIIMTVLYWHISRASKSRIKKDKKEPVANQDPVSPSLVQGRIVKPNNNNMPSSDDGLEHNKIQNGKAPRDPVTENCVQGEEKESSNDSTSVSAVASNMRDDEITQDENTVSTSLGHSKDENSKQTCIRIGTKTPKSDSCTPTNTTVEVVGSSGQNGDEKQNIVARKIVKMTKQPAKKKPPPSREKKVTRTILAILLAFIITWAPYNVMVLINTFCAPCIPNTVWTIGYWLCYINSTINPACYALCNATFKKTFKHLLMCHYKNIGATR
Sequence of Alpha-2B adrenergic receptor (Homo sapiens) (P18089 whole entry): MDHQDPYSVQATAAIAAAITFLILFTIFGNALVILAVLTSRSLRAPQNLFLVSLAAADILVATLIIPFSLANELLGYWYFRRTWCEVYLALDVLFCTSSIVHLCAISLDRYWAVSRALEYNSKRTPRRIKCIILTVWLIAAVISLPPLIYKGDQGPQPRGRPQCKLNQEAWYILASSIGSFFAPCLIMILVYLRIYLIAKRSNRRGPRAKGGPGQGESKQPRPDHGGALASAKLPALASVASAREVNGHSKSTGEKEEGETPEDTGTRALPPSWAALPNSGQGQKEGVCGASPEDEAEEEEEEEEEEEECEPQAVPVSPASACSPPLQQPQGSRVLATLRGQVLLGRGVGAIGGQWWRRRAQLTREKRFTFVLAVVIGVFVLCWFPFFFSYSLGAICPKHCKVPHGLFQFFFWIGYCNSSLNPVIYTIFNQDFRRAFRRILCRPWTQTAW
Sequence of Adenosine receptor A1 (Homo sapiens) (P30542 whole entry): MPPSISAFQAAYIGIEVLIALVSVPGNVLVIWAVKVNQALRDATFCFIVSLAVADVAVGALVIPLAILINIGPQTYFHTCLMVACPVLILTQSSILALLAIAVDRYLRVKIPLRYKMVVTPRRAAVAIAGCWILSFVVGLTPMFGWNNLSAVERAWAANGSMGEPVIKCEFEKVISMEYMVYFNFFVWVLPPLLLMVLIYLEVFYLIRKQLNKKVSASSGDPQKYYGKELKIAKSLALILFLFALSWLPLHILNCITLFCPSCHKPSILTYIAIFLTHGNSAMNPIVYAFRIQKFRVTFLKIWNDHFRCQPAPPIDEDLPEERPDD

As for `COc1cc(OC)cc(-c2noc(N3CCN(C)C4(CCN(c5ccnc(C)c5)CC4)C3)n2)c1`, the Inhibition of control (on Mu-type opioid receptor; in [1]; in experiment [2]; in experiment [3]) was over 50% throughout.
Consider `CC(C)c1onc(-c2c(Cl)cccc2Cl)c1COc1ccc(/C=C/c2cccc(C(=O)O)c2)c(Cl)c1`, for which the Fold activation was 1.33 in experiment [4], 1.41 in experiment [6], 1.24 in experiment [9] and 1.12 in [10]. Moreover, in experiment [5], the Relative activation stood at 0.803%. Besides, in [7], the Remaining activity is 0.927. This molecule also displayed a P-value in experiment [8] of 3.89e-13.
On to `Nc1nc(NC2CC2)cc(-c2cccc(Cl)c2Cl)n1`, for which the Inhibition of control turned out to be 81% in experiment [11], 92% in experiment [12], 79% in experiment [13] and 99% in experiment [14].
Turning to `CCCc1c(OCCCOc2ccc(OCC(=O)O)cc2)ccc(C(C)=O)c1O`, the Fold activation stood at 1.22 in [15], 1.34 in experiment [18], 1.1 in experiment [20] and 1.36 in experiment [21]. In addition, the Relative activation in experiment [16] turned out to be 1.18%. This molecule displayed a Remaining activity in experiment [17] of 0.985. Besides, the P-value in [19] amounted to 1.09e-07.
On to `COC(=O)/C=C/c1cccc(N(Cc2ccc(-c3ccc(N(C)C)cc3)cc2)C(=O)C2CCCCC2)c1`, for which the Fold activation in experiment [22] amounted to 1.09; in experiment [24] it was 1.38; in experiment [25], 1.24; in [26], 1.05; in experiment [27], 1.14. In experiment [23], this molecule yielded a P-value of 2.38e-08. In experiment [28], this molecule gave a Relative activation of 0.492%.
